Data from PMC6926962, “Pentafluorophenyl Platinum(II) Complexes of PTA and Its N-Allyl and N-Benzyl Derivatives: Synthesis, Characterization and Biological Activity” (Materials, 2019).
Where two headings read alike, the source gives them in different places.

Tests used:
Solubility in water = format: physicochemical; settings: 25 °C
[1] = system: HeLa (human cervix carcinoma); assay: MTT cell viability assay, HeLa; format: cell-based; settings: 72 h incubation, read-out: Half maximal inhibitory concentration (IC50)
Description: (§1) NHDF (normal human dermal fibroblasts; PromoCell, C-12302), A549 (human lung carcinoma; ATCC, No CCL-185 ^TM), HeLa (human cervix carcinoma; ATCC, No CCL-2 ^TM) and MCF7 (human breast adenocarcinoma; ATCC, No HTB-22 ^TM) were used. NHDF, A549, HeLa and MCF7 cell lines were cultured in DMEM (Lonza, Basel, Switzerland). Media were supplemented with 10% FBS (Biological Industries, Kibbutz Beit-Haemek, Israel), 4 mM L-glutamine (Biological Industries, Kibbutz Beit-Haemek, Israel), 100 U/mL of penicillin and 100 µg/mL of streptomycin (Sigma, Steinheim, North Rhine-Westphalia, Germany).
(§2) All cell cultures were inserted in a 96-well plate (Eppendorf, Freie und Hansestadt Hamburg, Germany) in a concentration of 10^5 cells per well.
(§3) Compounds 2a–c and ligands 1a–c were dissolved in distilled water and diluted to afford concentrations of 30, 3, 0.3 and 0.03 μg/mL in DMEM and incubated in standard conditions for 72 h, after which the MTT (Sigma, Steinheim, North Rhine-Westphalia, Germany) assay was carried out. 20 µL of MTT (5 mg/mL) was added to each well, incubation for 4 h at 37 °C was implemented, and then 80 µL of lysis buffer was added. The test consists in the enzymatic reduction of the tetrazolium salt MTT in metabolically active cells. The metabolite, purple-colored formazan is measured colorimetrically, using a multiwell plate reader. The optical density (OD) was measured using a spectrophotometric microplate reader (Multiscan Go, Thermo Fisher, Waltham, MA, USA) at 570 nm with reference wavelength of 630 nm. The viability of the investigated cell cultures was estimated using following formula: viability% = (average OD for test group/average OD for control group) × 100. The untreated cells were used as a control group.

[2] = system: NHDF (normal human dermal fibroblasts); assay: MTT cell viability assay, NHDF; format: cell-based; settings: 72 h incubation, read-out: Half maximal inhibitory concentration (IC50)
Description: as §1, §2, §3

[3] = Octanol-water partition coefficient determination; format: physicochemical; settings: 24 °C, 10^−3 M in water saturated with octanol
Description: The log(P) values corresponding to the octanol–water partition coefficient was adjusted to the solubility properties of the compounds [84]. Complexes were dissolved in water previously saturated with octanol, to achieve concentrations of 10^−3 M. At 24 °C, 25 mL of octanol saturated with water was introduced into a 100 mL flask equipped and then 25 mL of the aqueous complex solutions was added. The two-phase mixture thus obtained was stirred vigorously for 20 min. After separation of the phases and removal of the respective solvents under vacuum, the attained residues were weighed. Values for log(P) of −0.11, −0.71 and −0.40 for 2a, 2b and 2c, respectively, were obtained.

[4] = system: MCF7 (human breast adenocarcinoma); assay: MTT cell viability assay, MCF7; format: cell-based; settings: MCF7, 72 h incubation, read-out: Half maximal inhibitory concentration (IC50)
Description: as §1, §2, §3

[5] = system: A549 (human lung carcinoma); assay: MTT cell viability assay, A549; format: cell-based; settings: A549, 72 h incubation, read-out: Half maximal inhibitory concentration (IC50)
Description: as §1, §2, §3

[6] = biological target: T1, human serum albumin (HSA) (Homo sapiens, UniProt P02768); assay: HSA interaction, circular dichroism; format: binding; settings: HSA/complex molar ratio 1/10; free HSA 50.88%
T1 construct: High purity free-HSA (>96%, Sigma-Aldrich, Steinheim, North Rhine-Westphalia, Germany) was used as purchased; purchased Sigma-Aldrich
Description: High purity free-HSA (>96%, Sigma-Aldrich, Steinheim, North Rhine-Westphalia, Germany) was used as purchased. The stock solutions of platinum complexes (200 μM) were freshly prepared in double distilled water prior to their use. The HSA solutions (200 μM) were prepared in PBS (pH 7.40). […] Measurements were done after 24 h incubation at 300, 305 and 310 K. HSA concentration was determined, using A279 (1 mg/mL) as 0.531 [85].
Circular dichroism spectra were recorded on a Jasco J-715 spectropolarimeter, over the range of 190–250 nm in 0.1 cm cuvettes. The α-helical content of HSA was calculated from the molar ellipticity (θ) at 208–210 nm using Equations (1) and (2): (1) MRE209=ObservedCD (mdeg)/Cp·n·l·10, (2) α−helix (%)=MRE209−4000/33000−4000×100, where MRE is the mean residue ellipticity, Cp is the molar concentration of the protein, n is the number of amino acid residues (583) and l is the path-length (0.1 cm).

[7] = biological target: T1, human serum albumin (HSA); assay: HSA interaction, fluorescence quenching (Trp-214); format: binding; settings: for KSV (Stern-Volmer constant): HSA 10 μM, pH 7.40; for ΔH^0 / ΔS^0: van't Hoff; for maximum blue shift of HSA fluorescence emission: HSA emission max 335 nm, λex 295 nm
Description: High purity free-HSA (>96%, Sigma-Aldrich, Steinheim, North Rhine-Westphalia, Germany) was used as purchased. The stock solutions of platinum complexes (200 μM) were freshly prepared in double distilled water prior to their use. The HSA solutions (200 μM) were prepared in PBS (pH 7.40). In the final step, the samples contained (protein):(drug) equal 1:0–1:9 in PBS, where CHSA was 10 μM. Measurements were done after 24 h incubation at 300, 305 and 310 K. HSA concentration was determined, using A279 (1 mg/mL) as 0.531 [85].
Emission fluorescence spectra were recorded using Hitachi F-2700 spectrofluorimeter (Tokio, Japan) in 1.0 cm quartz cells in the 300–400 nm range. Trp-214 fluorescence of HSA was measured at 295 nm. The intensity at 335 nm (Trp-214) was used to achieve the quenching mechanism and calculate the binding constants and thermodynamic parameters according to literature reports.

[8] = system: A549 (human lung carcinoma); design: method as in PMID 31237306; settings: nd = not detectable, read-out: Half maximal inhibitory concentration (IC50); cited from earlier work
[9] = system: HeLa (human cervix carcinoma); design: method as in PMID 31237306; settings: nd = not detectable, read-out: Half maximal inhibitory concentration (IC50); cited from earlier work
[10] = biological target: T1, human serum albumin (HSA); settings: under the same conditions; cited from earlier work
[11] = system: NHDF (normal human dermal fibroblasts); design: method as in PMID 31237306; settings: nd = not detectable, read-out: Half maximal inhibitory concentration (IC50); cited from earlier work
[12] = system: MCF7 (human breast adenocarcinoma); design: method as in PMID 31237306; settings: nd = not detectable, read-out: Half maximal inhibitory concentration (IC50); cited from earlier work

T1 sequence (P02768 25-609): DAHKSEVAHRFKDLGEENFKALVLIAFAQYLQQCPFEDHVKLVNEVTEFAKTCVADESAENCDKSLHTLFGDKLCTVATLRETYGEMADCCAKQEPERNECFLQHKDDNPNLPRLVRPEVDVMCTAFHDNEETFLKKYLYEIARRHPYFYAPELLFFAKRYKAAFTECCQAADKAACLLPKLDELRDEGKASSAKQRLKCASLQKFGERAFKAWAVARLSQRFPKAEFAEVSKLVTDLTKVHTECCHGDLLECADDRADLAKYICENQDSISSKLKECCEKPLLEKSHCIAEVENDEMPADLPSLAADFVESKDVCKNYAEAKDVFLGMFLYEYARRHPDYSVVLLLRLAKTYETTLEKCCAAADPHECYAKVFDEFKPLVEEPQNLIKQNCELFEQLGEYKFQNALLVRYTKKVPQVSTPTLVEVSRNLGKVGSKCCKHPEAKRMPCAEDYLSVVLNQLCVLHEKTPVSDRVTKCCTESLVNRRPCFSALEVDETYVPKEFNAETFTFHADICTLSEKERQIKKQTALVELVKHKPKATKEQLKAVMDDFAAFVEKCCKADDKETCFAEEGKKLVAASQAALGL

Row | Molecule | solubility in H2O (S25 °C) (Solubility in water) | IC50 [1] [µM] | IC50 [2] [µM] | log(P) octanol-water partition coefficient [3] | IC50 [4] [µM] | IC50 [5] [µM] | content of α-helix of HSA [6] [%] | KA (association constant) ([7]; 300 K) [M⁻¹] | Kq (quenching rate constant) ([7]; 300 K) [M⁻¹ s⁻¹] | n (number of binding sites) ([7]; 300 K) | ΔG^0 ([7]; 300 K) [kcal/mol] | KSV (Stern-Volmer constant) ([7]; 300 K) [M⁻¹] | ΔH^0 ([7]; 300 K) [kcal/mol] | ΔS^0 ([7]; 300 K) [J mol^−1·K^−1] | KA (association constant) ([7]; 305 K) [M⁻¹] | Kq (quenching rate constant) ([7]; 305 K) [M⁻¹ s⁻¹] | n (number of binding sites) ([7]; 305 K) | ΔG^0 ([7]; 305 K) [kcal/mol] | KSV (Stern-Volmer constant) ([7]; 305 K) [M⁻¹] | ΔH^0 ([7]; 305 K) [kcal/mol] | further results
1 | trans-(PtCl(C6F5)(PTA)2) [Compound 2a] | ≈ 0.35 mg mL^−1 | > 42.1 | 26.1 ± 0.68 | −0.11 | > 42.1 | 15.4 ± 5.3 |  |  |  |  |  |  |  |  |  |  |  |  |  |  | 
2 | C=CC[N+]12CN3CN(C1)C[PH]([Pt]([Cl])([c]1c(F)c(F)c(F)c(F)c1F)[PH]14CN5CN(C[N+](CC=C)(C5)C1)C4)(C3)C2.F[B-](F)(F)F.F[B-](F)(F)F [Compound 2b, trans-(PtCl(C6F5)(APTA)2)(BF4)2] | ≈ 4.0 mg mL^−1 | 29.5 ± 1.3 | 26.9 ± 3.5 | −0.71 | > 31 | 7.79 ± 1.7 | 46.29 | 9880 | 1.77e+12 | 1.26 | -5.43 | 8850 | 4.02 | 131.4 | 9900 | 1.96e+12 | 0.96 | -5.57 | 9780 | 4.02 | ΔS^0 ([7]; 305 K): 131.4 J mol^−1·K^−1; KA (association constant) ([7]; 310 K): 11000 M⁻¹; Kq (quenching rate constant) ([7]; 310 K): 2.08e+12 M⁻¹ s⁻¹; n (number of binding sites) ([7]; 310 K): 1.24; KSV (Stern-Volmer constant) ([7]; 310 K): 10400 M⁻¹; maximum blue shift of HSA fluorescence emission [7]: ca. 3 nm
3 | c1ccc(C[N+]23CN4CN(CP(C4)C2)C3)cc1 [Compound 1c, 1-benzyl-1-azonia-3,5-diaza-7-phosphaadamantane] |  |  |  |  |  |  |  |  |  |  |  |  |  |  |  |  |  |  |  |  | IC50 ([1]; Homo sapiens): 56 ± 16 µM; IC50 ([2]; Homo sapiens): > 224 µM; IC50 ([4]; Homo sapiens): 72.4 ± 2.4 µM; IC50 ([5]; Homo sapiens): > 224 µM
4 | F[B-](F)(F)F.F[B-](F)(F)F.Fc1c(F)c(F)[c]([Pt-3]([Cl])([P+]23CN4CN(C[N+](Cc5ccccc5)(C4)C2)C3)[P+]23CN4CN(C[N+](Cc5ccccc5)(C4)C2)C3)c(F)c1F [Compound 2c, trans-(PtCl(C6F5)(BzPTA)2)(BF4)2] | ≈ 3.0 mg mL^−1 | 8.89 ± 4.1 | 11.2 ± 3.1 | −0.40 | > 28.1 | > 28.1 | 47.17 | 14500 | 2.72e+12 | 1.25 | -5.71 | 13600 | 1.71 | 103.5 | 15200 | 2.96e+12 | 0.99 | -5.83 | 14800 | 1.71 | ΔS^0 ([7]; 305 K): 103.5 J mol^−1·K^−1; KA (association constant) ([7]; 310 K): 15900 M⁻¹; Kq (quenching rate constant) ([7]; 310 K): 3.24e+12 M⁻¹ s⁻¹; n (number of binding sites) ([7]; 310 K): 1.59; KSV (Stern-Volmer constant) ([7]; 310 K): 16200 M⁻¹; maximum blue shift of HSA fluorescence emission [7]: ~5 nm
5 | C=CC[N+]12CN3CN(CP(C3)C1)C2 [Compound 1b, 1-allyl-1-azonia-3,5-diaza-7-phosphaadamantane] |  |  |  |  |  |  |  |  |  |  |  |  |  |  |  |  |  |  |  |  | IC50 ([1]; Homo sapiens): 65.8 ± 6.6 µM; IC50 ([2]; Homo sapiens): > 263 µM; IC50 ([4]; Homo sapiens): > 263 µM; IC50 ([5]; Homo sapiens): > 263 µM
6 | N.N.[Cl][Pt][Cl] [Cisplatin, cisplatin] |  |  |  |  |  |  |  |  |  |  |  |  |  |  |  |  |  |  |  |  | IC50 [8]: 33.3 ± 4.2 µM; IC50 [9]: 16.6 ± 3.1 µM; binding constant Ka for cisplatin-HSA complex [10]: 852 M⁻¹; IC50 [11]: 16.6 ± 2.1 µM; IC50 [12]: 33.3 ± 4.2 µM
